The numbers were not newly measured in patent US9084671B2, “Methods of forming a micronized peptide coated stent” (ABBOTT CARDIOVASCULAR SYSTEMS INC., priority 2002, dated 2015), which cites them from elsewhere.

For the data set the following is noted: stated as a property of the highly cationic guanidinium peptide; no method given.

Regarding heptaarginine [heptamer of L-arginine], the pKa was 13.2.

For orientation: pKa means the negative logarithm of the acid dissociation constant.
